Paper PMC9919579 (Molecules, 2023)

These compounds were tested against T1, vaccinia virus TOP1 (vaccinia DNA Topoisomerase I) (Vaccinia virus WR, UniProt P68698) (assay: biochemical).
T1 construct: gene OPG111; TOP1 described as 314 amino acids; amine-coupled to GLH chip
Type: binding

Compound	Kd
C[C@@H]1O[C@@H](Oc2c(-c3cc(O)c(O)c(O)c3)oc3cc(O)cc(O)c3c2=O)[C@H](O)[C@H](O)[C@H]1O [Myricitrin]	3.54 µM
CC1COc2c(N3CCN(C)CC3)c(F)cc3c(=O)c(C(=O)O)cn1c23 (stereo not shown) [Ofloxacin]	5.46 µM
C[C@@H]1O[C@@H](Oc2c(-c3ccc(O)c(O)c3)oc3cc(O)cc(O)c3c2=O)[C@H](O)[C@H](O)[C@H]1O [Quercitrin]	4.77 µM
O=C(/C=C/c1ccc(O)c(O)c1)O[C@H](Cc1ccc(O)c(O)c1)C(=O)O [Rosmarinic acid]	2.16 µM
